Experimental data: US20250269022A1, “ASSESSING AND TREATING CANCER” (Mayo Foundation for Medical Education and Research, priority 2021, published 2025)
Entries after “also recorded” stand apart in the source; their conditions may differ. Read-outs that look alike come from different tables or passages of the source. Blank lines part the entries; values can stand above or below the molecule they belong to.

How the values were obtained:
JeKo-1 cells [1] = experiment: CART19 killing of luciferase+ JeKo-1 cells in combination with small molecules; assay type: cell-based
Procedure: CART19 cells were cultured in combination with different molecules at the indicated ratios/concentration, and in combination with the luciferase+ JeKo-1 cells at the indicated E:T ratios. Killing was determined after 24 hours using bioluminescence imaging.

CART cells [2] = experiment: Proliferation assay of CART cells co-cultured with JeKo-1 cells, with navitoclax or venetoclax; assay type: cell-based
Description: Longitudinal navitoclax treatment of CART cells. […] Longitudinal treatments included two parts.
For proliferation assays, effector cells (CART cells), and irradiated target cells (CD19+ JeKo 1 cells) were co-cultured at different ratios and with different concentrations of the compounds. Cells were co-cultured for 3-5 days, and then cells were harvested and surface staining with antihCD3 (eBioscience, San Diego, CA, USA) and LIVE/DEAD™ Fixable Aqua Dead Cell Stain Kit (Invitrogen, Carlsbad, CA, USA) was performed.

JeKo-1 cells [3] = experiment: Cytotoxicity (killing) assay of CART cells against luciferase+ JeKo-1 cells, with senolytics
Procedure: D8 CART cells were treated with navitoclax (0 μM, 0.5 μM, 1 μM, 2 μM, or 4 μM) for 24 hours and then divided into two groups. In the first group, navitoclax was washed away for proliferation and cytotoxicity assays. In the second group, navitoclax treatment was maintained during proliferation and cytotoxicity assays.
Longitudinal navitoclax treatment of CART cells. D15 and D22 CART cells were generated to mimic possible dysfunctions (e.g., exhaustion, senescence, etc.) that CART cells can develop. Serial activation of CART cells can induce T cell senescence during CART cell generation. This experiment was designed to selectively remove senescing CART cells during CART cell proliferation. During this experiment CART cells were pretreated with navitoclax, the proliferation, EDU, and cytotoxicity assays were done in the absence of navitoclax. Longitudinal treatments included two parts. Part I was a typical CART cell production protocol except for addition of navitoclax at D7 for 24 hours. Briefly, CART cells were activated on day 1, transduced on day 2, and debeaded on day 6. On day 7, CART cells were treated with navitoclax (0 μM, 0.125 μM, 0.25 μM, 0.5 μM, 0.75 μM, 1 μM, or 2 μM). On day 8, the navitoclax was washed away, and the CART cells were prepared for cytotoxicity assays and proliferation assays. For part II, JeKo-1 UDT was added to the CART cells on days 8 and 10, the media was replaced on day 12, and navitoclax was added on day 13. On day 14, the navitoclax was washed away, and the CART cells were prepared for cytotoxicity assays and proliferation assays or JeKo-1 IR was added and the CART cells were prepared for an EdU assay. The CART cells were provided several resting times after being activated by JeKo-1 to provide plenty of resting time to differentiate reversible exhaustion and irreversible T cell senescence. This assay focuses on D8 (freshly generated CART cells), D15 (D8 cells activated with JeKo-1 for a week as indicated as part II in the figure), and D22 CART cells (additional activation summarized in part II on D15 CART cells).
For killing assays, the CD19+ Luciferase+ mantle cell lymphoma cell like JeKo-1 cells were incubated with effector T cells for 24, 48, or 72 hours. Killing was calculated by bioluminescence imaging on a Xenogen IVIS-200 Spectrum camera (PerkinElmer, Hopkinton, MA, USA) as a measure of residual live cells. Samples were treated with 1 μL D-luciferin (30 μg/mL) per 100 μL sample volume (Gold Biotechnology, St. Louis, MO, USA), for 10 minutes prior to imaging.

CART cells [4] = experiment: EdU assay of cycling CART cells; assay type: cell-based; details: navitoclax treated
Procedure: Longitudinal navitoclax treatment of CART cells. […] […] Longitudinal treatments included two parts. […] Cells were co-cultured for 3-5 days, and then cells were harvested and surface staining with […]3 (eBioscience, San Diego, CA, USA) and LIVE/DEADTM Fixable Aqua Dead Cell Stain Kit (Invitrogen, Carlsbad, CA, USA) was performed.

JeKo1 cell line = experiment: In vivo JeKo1 xenograft with navitoclax-treated CART cells; set-up: species or system NSG mice
Description: NSG mice were engrafted with the luciferase positive, CD19+ JeKo1 cell line I.V. One week later, mice underwent bioluminescence imaging (BLI) to determine the level of the disease and then randomized to treatment with CART cells. Mice then underwent weekly BLI to measure disease burden and were followed for survival.

PD-L1 = target: T1, PD-L1 (Homo sapiens, UniProt Q9NZQ7); experiment: CART19 antigen-specific proliferation with PD-L1 blockade in presence of PD-L1high CLL-derived EVs; assay type: cell-based; details: PD-L1high CLL-derived EVs 100:1, 6 hours, JeKo-1 at E:T 5:1, antibody 20 μg/mL
T1 construct: These PPP preparations from the peripheral blood of untreated CLL patients are the source of the samples called CLL-derived EVs; from tissue; host or cells: extracellular vesicles in platelet-poor plasma of untreated CLL patients, co-cultured with CART19 cells and then JeKo-1 cells
Procedure: CART19 and JeKo-1 or JeKo-1 cells irradiated at 120 Gy were cocultured at a 1:1 ratio with or without CLL-derived EVs. T cells for functional assays were cultured in T cell medium containing X-VIVO 15 (Lonza, Walkersville, MD, USA), 10% human serum albumin (Innovative Research, Novi, MI, USA), and 1% penicillin-streptomycin-glutamine (Gibco, Gaithersburg, MD, USA). EVs were cocultured with CART19 cells at 100:1, 10:1, 5:1, and 1:1 EV/CART cell ratios using three biological replicates of CLL-derived EVs at 37° C., 5% CO2, and then co-cultured with primary CLL cells or JeKo-1 cells as indicated in the specific experiment. Cell supernatant was collected at 24 hours, and cells were analyzed by flow cytometry. To assess killing and proliferation, UTD T cells, CART19 cells, and CART19 cells co-cultured with CLL-derived EVs at a 100:1 EV/CART cell ratio were incubated at 37° C., 5% CO2 for 6 hours before adding JeKo-1 target cells. […] Cells were analyzed by flow cytometry after 48 hours of incubation.

T1 sequence (Q9NZQ7 19-290): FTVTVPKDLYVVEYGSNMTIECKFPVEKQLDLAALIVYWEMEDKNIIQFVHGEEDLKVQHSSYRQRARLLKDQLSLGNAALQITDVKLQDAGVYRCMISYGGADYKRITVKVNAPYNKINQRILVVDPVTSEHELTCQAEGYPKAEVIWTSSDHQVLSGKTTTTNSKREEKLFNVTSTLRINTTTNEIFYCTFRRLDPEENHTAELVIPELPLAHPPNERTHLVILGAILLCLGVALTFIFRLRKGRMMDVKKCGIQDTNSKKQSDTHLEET

Molecule: O=S(=O)(c1cccc2cnccc12)N1CCCNCC1 [fasudil]
CART19 antigen specific killing (JeKo-1 cells [1]; combination with CART19 cells, 24 hours, bioluminescence): improved CART19 antigen specific killing

Molecule: CC1(C)CCC(c2ccc(Cl)cc2)=C(CN2CCN(c3ccc(C(=O)NS(=O)(=O)c4ccc(N[C@H](CCN5CCOCC5)CSc5ccccc5)c(S(=O)(=O)C(F)(F)F)c4)cc3)CC2)C1 [navitoclax]
CART cell proliferation against JeKo-1 in combination with senolytic (CART cells [2]; CART cells co-cultured with JeKo-1 in presence of drug): decreased CART cell proliferation
CART cell proliferation (CART cells [2]; D8 CART cells continuously treated with navitoclax, co-culture with JeKo-1, vs untreated CART cells): decreased proliferation
D22 CART cell proliferation (CART cells [2]; longitudinal navitoclax treatment vs navitoclax untreated CART cells, in vitro): increase in D22 CART proliferation
CART cell proliferation over time (CART cells [2]; longitudinal navitoclax treatment, D8, D15, D22): decreased proliferation of CART cells through time; also recorded: decreases over time
Cytotoxicity of drug alone against JeKo-1 (JeKo-1 cells [3]; 0:1 E:T ratio (no CART)): cytotoxic against JeKo-1
CART cell cytotoxicity against JeKo-1 in combination with senolytic (JeKo-1 cells [3]; D8 CART cells co-cultured with JeKo-1 and drug, 48 hours): increased CART cell cytotoxicity
CART cell cytotoxicity against JeKo-1 (JeKo-1 cells [3]; navitoclax maintained in assay, higher navitoclax concentrations): decreased CART cell cytotoxicity
CART cell cytotoxicity against JeKo-1 (JeKo-1 cells [3]; navitoclax pre-treatment 24 hours, assay without navitoclax): did not result in different cytotoxicity
EdU positivity of CART cells (CART cells [4]; D8 and D22 CART cells): similar
EdU positivity of CART cells (CART cells [4]; D15 CART cells): decreased
Tumor burden of mice (JeKo1 cell line; D22 CART cells treated with or without navitoclax, 22 days after CART cell transplantation): not different
Antitumor activity of CART cells in vivo (JeKo1 cell line; navitoclax pretreatment of CART cells): did not increase antitumor activity; also recorded: did not improve CART cell activity

Molecule: CC(C)(CO)[C@@H](O)C(=O)NCCC(=O)NCCSSCCNC(=O)CCNC(=O)[C@H](O)C(C)(C)CO [panthethine, D-pantethine]
CART19 antigen specific killing (JeKo-1 cells [1]): improved CART19 antigen specific killing

Molecule: CC1(C)CCC(CN2CCN(c3ccc(C(=O)NS(=O)(=O)c4ccc(NCC5CCOCC5)c([N+](=O)[O-])c4)c(Oc4cnc5[nH]ccc5c4)c3)CC2)=C(c2ccc(Cl)cc2)C1 [venetoclax]
CART cell cytotoxicity against JeKo-1 in combination with senolytic (JeKo-1 cells [3]): increased CART cell cytotoxicity

Reversal of EV-mediated inhibition of CART19 antigen-specific proliferation (PD-L1): did not improve
Reversal of EV-mediated inhibition of CART19 antigen-specific proliferation (PD-L1; listed as PD-L1 blocking antibodies): no statistically significant reversal
Molecule: atezolizumab [anti-PD-L1 antibody]
